From ChEMBL document CHEMBL4813915, “Deep learning enables discovery of highly potent anti-osteoporosis natural products” (Eur J Med Chem, 2021) come the findings set out here.

Data set [1] in a line: Inhibition of GST-tagged recombinant RANKL/M-CSF-induced osteoclastogenesis in C57BL/6 mouse bone marrow derived macrophages assessed as TRAcP enzymatic activity incubated for 5 days with subsequent replenishment of media for 2 days and measured by leucocyte acid phosphatase staining method. The class given is functional, tissue-based. To be noted: bmdm.
Data set [2] can be described thus: Cytotoxicity against C57BL/6 mouse bone marrow measured after 48 hrs by CCK8 assay. The following applies: mouse bone marrow cells. It is filed as tissue-based, BMDM.
The test system of data set [3] is BMDM. Description: Inhibition of RANKL-induced osteoclastogenesis in C57BL/6 mouse bone marrow derived macrophages assessed as reduction in CTSK mRNA expression measured after 4 days by qRT-PCR method. The following applies: dose 0.5-5 µM, time 4.0 day. The class given is functional, tissue-based.
The subject of data set [4] is BMDM. Nature of the data set: Inhibition of RANKL-induced osteoclastogenesis in C57BL/6 mouse bone marrow derived macrophages assessed as reduction in NFATC1 mRNA expression measured after 4 days by qRT-PCR method. To be noted: dose 0.5-5 µM, time 4.0 day. The class given is functional, tissue-based.
Data set [5] deals with BMDM. Description: Inhibition of RANKL-induced osteoclastogenesis in C57BL/6 mouse bone marrow derived macrophages assessed as reduction in TRACP mRNA expression measured after 4 days by qRT-PCR method. The following applies: dose 0.5-5 µM, time 4.0 day. The class given is functional, tissue-based.
The subject of data set [6] is BMDM. Description: Inhibition of RANKL-induced osteoclastogenesis in C57BL/6 mouse bone marrow derived macrophages assessed as reduction in RANK mRNA expression measured after 4 days by qRT-PCR method. It is filed as functional, tissue-based. To be noted: dose 0.5-5 µM, time 4.0 day.

As for `COc1cc2c(cc1OC)C(Cc1ccc(OCc3ccccc3)c(OC)c1)=NCC2`, the IC50 in data set [1] (read-out: IC50) is 32 nM. Besides, it took 26800 nM to reach half-maximal cytotoxicity in data set [2] (CC50 at 48 h). Also, the inhibition entry in data set [3], in data set [4], in data set [5] and in data set [6] was “Dose-Dependent Effect” each time.
On to `CC(=O)[C@H]1CC[C@H]2[C@@H]3CC[C@H]4C[C@@H](OC(=O)Cc5ccc(C(=O)c6ccccc6)cc5)CC[C@]4(C)[C@H]3CC[C@]12C`, for which, in data set [1] (read-out: IC50), the IC50 was determined as 1730 nM.
Take `C[C@@H]1CC[C@@]2(OC1)O[C@H]1C[C@H]3[C@@H]4CC[C@H]5C[C@H](O)CC[C@]5(C)C4=CC[C@]3(C)[C@H]1[C@@H]2C`: in data set [1], the IC50 entry was “Not Active”.
The same measure, in the same setting: to `COc1ccc(C[C@H]2c3cc(OC)c(OC)cc3CCN2C)cc1OC` belongs “Not Active”.
The same measure, in the same setting: as for `COc1c2cc3c(cc2nc2occc12)OCO3` [MACULINE], the entry is “Not Active”; as for `COc1cc([C@H]2OC[C@H]3[C@@H]2CO[C@@H]3c2ccc(OC(C)=O)c(OC)c2)ccc1OC(C)=O`, “Not Active”.
Consider `COc1ccc2c(c1)CCN=C2Cc1ccc(OCc2ccccc2)c(OC)c1C`, for which the 50% inhibitory concentration (IC50) in data set [1] (read-out: IC50) came out at 68 nM. The compound further registered a CC50 at 48 h in data set [2] of 19900 nM. Further, the inhibition entry in data set [3], in data set [4], in data set [5] and in data set [6] was “Dose-Dependent Effect” in each case.
Regarding `COc1ccc(C(=O)/C=C/c2ccccc2)c(O)c1`, the IC50 result in data set [1] is “Not Active”.
Take `COc1cc2nc3occc3c(OC)c2cc1OC` [KOKUSAGININE]: the IC50 in data set [1] (read-out: IC50) was 3160 nM.
Still for that read-out and setting: as for `C=C1CC[C@@H]2[C@](C)(CO)[C@H](O)CC[C@@]2(C)[C@@H]1C/C=C1/C(=O)OC[C@H]1O` [ANDROGRAPHOLIDE], the figure is 550 nM.
